Patent publication US11672788B2, “Histone deacetylase inhibitors for immunomodulation in tumor microenvironment” (GREAT NOVEL THERAPEUTICS BIOTECH & MEDICALS CORPORATION, priority 2020, dated 2023)

Columns and labels:
HDAC1 = HDAC1 (Homo sapiens (Human), UniProt Q13547); assay: HDACs 1, 2, and 3 enzymatic inhibition (fluorogenic kit, 1 h); assay type: biochemical; settings: 37° C.
Procedure: (§1) HDACs assay was performed according to standard Protocols (Fluorgenic HDACs 1, 2, and 3 assay kit, BPS Bioscience™). […] After 1 h, assay developer was added to the samples and the absorbance was read at fluorogenic wavelength. The relative inhibition to HDACs 1, 2, and 3 activities in each sample was determined.

HDAC3 = HDAC3 (Homo sapiens (Human), UniProt O15379); assay: as above; assay type: biochemical; settings: 37° C.
Chain of HDAC3 (O15379 whole entry): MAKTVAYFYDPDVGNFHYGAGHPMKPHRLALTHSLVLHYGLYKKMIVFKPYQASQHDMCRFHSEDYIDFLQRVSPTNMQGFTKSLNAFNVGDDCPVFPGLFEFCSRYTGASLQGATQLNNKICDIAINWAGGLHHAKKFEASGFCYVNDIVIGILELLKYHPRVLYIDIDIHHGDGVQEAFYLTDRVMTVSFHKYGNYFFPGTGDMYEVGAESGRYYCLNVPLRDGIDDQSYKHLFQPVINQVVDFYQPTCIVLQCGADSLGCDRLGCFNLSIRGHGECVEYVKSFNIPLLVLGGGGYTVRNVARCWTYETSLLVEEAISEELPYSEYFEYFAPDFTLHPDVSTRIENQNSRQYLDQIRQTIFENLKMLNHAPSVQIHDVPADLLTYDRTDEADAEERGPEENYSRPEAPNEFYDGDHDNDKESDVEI
Chain of HDAC3 (Q9Y618 395-489 partner): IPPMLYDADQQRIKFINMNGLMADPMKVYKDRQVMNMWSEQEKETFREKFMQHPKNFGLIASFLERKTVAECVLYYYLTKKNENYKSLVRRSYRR
Procedure: as §1

HDAC2 = HDAC2 (Homo sapiens (Human), UniProt Q92769); assay: as above; assay type: biochemical; settings: 37° C.
Chain of HDAC2 (Q92769 whole entry): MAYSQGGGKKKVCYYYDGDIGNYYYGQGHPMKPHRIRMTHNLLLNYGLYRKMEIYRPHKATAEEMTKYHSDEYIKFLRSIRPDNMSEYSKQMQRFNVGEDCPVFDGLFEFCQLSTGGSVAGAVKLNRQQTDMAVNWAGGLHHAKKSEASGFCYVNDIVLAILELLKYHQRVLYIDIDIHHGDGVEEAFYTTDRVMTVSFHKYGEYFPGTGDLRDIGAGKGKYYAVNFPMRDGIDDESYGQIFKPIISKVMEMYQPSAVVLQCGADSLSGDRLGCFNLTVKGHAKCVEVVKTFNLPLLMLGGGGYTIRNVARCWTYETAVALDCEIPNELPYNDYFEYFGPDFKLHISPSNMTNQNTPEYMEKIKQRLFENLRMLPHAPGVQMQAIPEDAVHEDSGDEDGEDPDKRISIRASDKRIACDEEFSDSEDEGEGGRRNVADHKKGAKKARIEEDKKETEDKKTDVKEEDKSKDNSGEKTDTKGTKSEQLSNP
Procedure: as §1

SW48 cells [1] = assay: Cell apoptosis (sub-G1) by PI flow cytometry; assay type: cell-based, human; settings: 72 h; for Induction of apoptosis: SW48, indicated doses (Table 13)
Procedure: (§2) A PI/RNase staining assay (BD Bioscience™) was performed to reveal the presence of cell cycle arrest and apoptotic cells after treatment with GNTbm compounds, Chidamide and Entinostat. […] After treatment cells were harvested, fixed with 80% ethanol for 24 h, washed with 1×PBS and stained with PI/RNase for 15 min at room temperature. The cells were then analyzed using Flow Cytometer within 1 h.

SW48 cells [2] = assay: Cell cycle arrest by PI flow cytometry; assay type: cell-based, human; settings: for Percentage of Cell Cycle Distribution G0/G1 / Percentage of Cell Cycle Distribution G2/M / Percentage of Cell Cycle Distribution S: 72 h; for Cell cycle arrest: SW48, doses of Table 12
Procedure: as §2

NCI-N87 = assay: In vitro cytotoxicity MTT assay; assay type: cell-based; settings: Homo sapiens, 72 h, IC50 ± SD
Procedure: (§3) Six different cell lines were used, including human breast cancer cell line MDA-MB-231 (6×10^3), MDA-MB-453 (2.4×10^4), SK-BR-3 (6×10^3), human breast epithelial cell line M10 (6×10^3), human gastric carcinoma NCI-N87 (2.4×10^4), and human colorectal adenocarcinoma SW48 (2.4×10^4), and seeded in a 96 well plate. Cell lines were obtained from Bioresource Collection and Research Center, BCRC, Taiwan. […] After 72 h, MTT assay (Cayman™) was used to determine the cellular viability.

[3] = tested on: histone H3 acetylation (AcH3) in SW48 cells; assay: Western blot of histone H3 acetylation; assay type: cell-based, human; settings: SW48, 24 h, FIG. 12c
Procedure: Human breast cancer MDA-MB-231 cells and human colorectal adenocarcinoma SW48 cells were analyzed. MDA-MB-231 and SW48 were obtained from Bioresource Collection and Research Center (BCRC, Taiwan). MDA-MB-231 and SW48 were grown at 37° C. under humidified air supplemented without CO2 in Leibovitz's L-15 (cat. #11415114, Thermo Fisher Scientific) containing 10% heat inactivated fetal calf serum (Thermo Scientific), 1× concentration of MycoZap antibiotics (cat. #VZA-2011, Lonza). Cells were treated with GNTbm compounds series, Chidamide or Entinostat for different time periods or at varied doses. Cells were treated with indicated doses for 24 h or cells were treated with indicated doses for different time periods. Cell pellets were dissolved with RIPA buffer (cat. #20-188, Merck) with protease and phosphatase inhibitors (cat. #K272, BioVision) and clarified by centrifugation. Equal amounts of total protein were resolved by SDS-PAGE and transferred to polyvinylidene fluoride membranes (cat. #1620177, BIO-RAD). Blots were incubated with primary antibodies against β-actin (cat. #sc-47778, Santa Cruz Biotechnology), Histone 3ac (cat. #61637, Active Motif), and HRP secondary antibodies anti-rabbit (ab6721, Abcam) and anti-mouse (sc-2005, Santa Cruz). Blots were developed using the ECL Western Blotting Substrate (cat. #sc-2048, Santa Cruz Biotechnology) Image blots were analyzed with the iBright FL1000 (Thermo Fisher Scientific) imaging systems.

SW48 = assay: In vitro cytotoxicity MTT assay; assay type: cell-based, human; settings: Homo sapiens, SW48, 72 h, IC50 ± SD
Procedure: as §3

MDA-MB-231 = assay: In vitro cytotoxicity MTT assay; assay type: cell-based, human; settings: Homo sapiens, MDA-MB-231, 72 h, IC50 ± SD
Procedure: as §3

MDA-MB-453 = assay: In vitro cytotoxicity MTT assay; assay type: cell-based, human; settings: Homo sapiens, MDA-MB-453, 72 h, IC50 ± SD
Procedure: as §3

M10 = assay: In vitro cytotoxicity MTT assay; assay type: cell-based, human; settings: Homo sapiens, M10, 72 h, IC50 ± SD
Procedure: as §3

Saturation solubility = assay type: physicochemical; settings: ddH2O, 25° C., 90 minutes; mean ± SD; BDL: Below detection limit
Procedure: Samples of 5 mg of compounds were added to 5 ml volumetric flasks containing ddH2O and shaken at 100 rpm in an incubator at 25° C. for 90 minutes. The resulting suspension was filtered through a 0.22 μm filter. The concentrations of compounds were determined spectrophotometrically at 256 nm. The saturation solubility of each sample was determined in triplicates and the mean value and standard deviation were reported.

Chain of HDAC1 (Q13547 whole entry): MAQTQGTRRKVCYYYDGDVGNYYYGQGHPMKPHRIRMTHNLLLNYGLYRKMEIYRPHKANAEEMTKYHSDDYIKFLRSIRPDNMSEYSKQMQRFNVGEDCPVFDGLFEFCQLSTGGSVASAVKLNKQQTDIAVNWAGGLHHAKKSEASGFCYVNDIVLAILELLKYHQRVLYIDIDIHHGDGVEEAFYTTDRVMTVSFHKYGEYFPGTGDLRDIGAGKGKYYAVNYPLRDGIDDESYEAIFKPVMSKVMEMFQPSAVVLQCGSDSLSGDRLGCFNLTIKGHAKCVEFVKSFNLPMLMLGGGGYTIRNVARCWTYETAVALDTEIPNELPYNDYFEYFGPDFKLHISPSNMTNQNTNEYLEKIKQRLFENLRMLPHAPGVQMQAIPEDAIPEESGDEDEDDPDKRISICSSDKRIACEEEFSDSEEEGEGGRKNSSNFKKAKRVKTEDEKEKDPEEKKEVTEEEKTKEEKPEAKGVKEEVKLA

| IC50 (HDAC1) [µM] | IC50 (HDAC3) [µM] | IC50 (HDAC2) [µM] | Structure (SMILES) | IC50 (NCI-N87) [µM] | IC50 (SW48) [µM] | IC50 (MDA-MB-231) [µM] | IC50 (MDA-MB-453) [µM] | IC50 (M10) [µM] | also measured |
| --- | --- | --- | --- | --- | --- | --- | --- | --- | --- |
| 0.14 ± 0.002 | 0.001 ± 4e-05 | 0.36 ± 0.02 | Nc1ccccc1NC(=O)c1ccc(NC(=O)C/C=C/c2cccnc2)cn1 [GNTbm-05, 5-((E)-4-(pyridin-3-yl)but-3-enamido)-N-(2-aminophenyl)pyridine-2-carboxamide] | 0.28 ± 0.01 | 1.64 ± 0.02 | 1.66 ± 0.02 | 1.58 ± 0.003 | 0.43 ± 0.03 | Percentages of Cell Apoptosis (SW48 cells [1]; SW48, 0.125 μM): 9.0%; Percentages of Cell Apoptosis (SW48 cells [1]; SW48, 0.5 μM): 17.9%; Percentages of Cell Apoptosis (SW48 cells [1]; SW48, 1 μM): 27.2%; Percentages of Cell Apoptosis (SW48 cells [1]; SW48, 2 μM): 42.4%; Induction of apoptosis (SW48 cells [1]): potent in inducing apoptosis in SW48 cells; Percentage of Cell Cycle Distribution G0/G1 (SW48 cells [2]; SW48, 0.125 μM): 61.5%; Percentage of Cell Cycle Distribution G2/M (SW48 cells [2]; SW48, 0.125 μM): 18.7%; Percentage of Cell Cycle Distribution S (SW48 cells [2]; SW48, 0.125 μM): 19.8%; Percentage of Cell Cycle Distribution G0/G1 (SW48 cells [2]; SW48, 0.5 μM): 59.2%; Percentage of Cell Cycle Distribution G2/M (SW48 cells [2]; SW48, 0.5 μM): 22.2%; Percentage of Cell Cycle Distribution S (SW48 cells [2]; SW48, 0.5 μM): 18.6%; Percentage of Cell Cycle Distribution G0/G1 (SW48 cells [2]; SW48, 1 μM): 55.4%; Percentage of Cell Cycle Distribution G2/M (SW48 cells [2]; SW48, 1 μM): 31.8%; Percentage of Cell Cycle Distribution S (SW48 cells [2]; SW48, 1 μM): 12.8%; Percentage of Cell Cycle Distribution G0/G1 (SW48 cells [2]; SW48, 2 μM): 53.6%; Percentage of Cell Cycle Distribution G2/M (SW48 cells [2]; SW48, 2 μM): 34.6%; Percentage of Cell Cycle Distribution S (SW48 cells [2]; SW48, 2 μM): 11.8%; Cell cycle arrest (SW48 cells [2]): significantly induced cell cycle arrest in the G2/M phase in SW48 cells; Histone 3 acetylation expression versus Chidamide [3]: more potent in inducing the histone 3 acetylation expression in SW48 cells than Chidamide |
| 0.1 ± 0.02 | 0.009 ± 0.01 | 0.39 ± 0.02 | Cc1ccc(/C=C/CC(=O)Nc2ccc(C(=O)Nc3ccccc3N)nc2)cn1 [GNTbm-06, 5-((E)-4-(6-methylpyridin-3-yl)but-3-enamido)-N-(2-aminophenyl)pyridine-2-carboxamide] | 2.2 ± 0.03 | 2.32 ± 0.08 | 3.87 ± 0.7 | 1.59 ± 0.01 | 1.95 ± 0.03 | Saturation Solubility (Saturation solubility): BDL |
| 0.37 ± 0.31 | 0.001 ± 2e-05 | 1.54 ± 0.28 | Cc1ccc(CCCC(=O)Nc2ccc(C(=O)Nc3ccc(F)cc3N)nc2)cn1 [GNTbm-08, 5-(4-(6-methylpyridin-3-yl)butanamido)-N-(2-amino-4-fluorophenyl)pyridine-2-carboxamide] | 15.5 ± 1.7 | 18.4 ± 1 | > 50 | 3.78 ± 0.5 | 20.8 ± 0.14 | – |
| > 20 | 0.001 | > 20 | Nc1cc(C(F)(F)F)ccc1NC(=O)c1ccc(NC(=O)C/C=C/c2cccnc2)cn1 [GNTbm-11, 5-((E)-4-(pyridin-3-yl)but-3-enamido)-N-(2-amino-4-(trifluoromethyl)phenyl)pyridine-2-carboxamide] | 1.87 ± 0.04 | 2.6 ± 0.45 | 1.71 ± 0.04 | 2.28 ± 0.06 | 1.65 ± 0.2 | – |
| > 20 | > 20 | > 20 | Cc1ccc(/C=C/CC(=O)Nc2ccc(C(=O)Nc3ccc(C(F)(F)F)cc3N)nc2)cn1 [GNTbm-12, 5-((E)-4-(6-methylpyridin-3-yl)but-3-enamido)-N-(2-amino-4-(trifluoromethyl)phenyl)pyridine-2-carboxamide] | > 50 | > 50 | > 50 | 15.8 ± 3.9 | 38.5 ± 5.9 | – |
| 0.48 ± 0.03 | 2.98 ± 0.08 | 1.42 ± 0.19 | Cc1ccc(CCCC(=O)Nc2ccc(C(=O)Nc3ccccc3N)nc2)cn1 [GNTbm-19, 5-(4-(6-methylpyridin-3-yl)butanamido)-N-(2-aminophenyl)pyridine-2-carboxamide] | 4.3 ± 1.4 | 8.73 ± 0.24 | 5.69 ± 1.7 | 1.81 ± 0.02 | 2.89 ± 0.12 | – |
| > 20 | > 20 | > 20 | Cc1ccc(CCCC(=O)Nc2ccc(C(=O)Nc3ccc(C(F)(F)F)cc3N)nc2)cn1 [GNTbm-25, 5-(4-(6-methylpyridin-3-yl)butanamido)-N-(2-amino-4-(trifluoromethyl)phenyl)pyridine-2-carboxamide] | > 50 | > 50 | > 50 | 19.1 ± 2.07 | > 50 | – |
| > 20 | > 20 | > 20 | Nc1cc(C(F)(F)F)ccc1NC(=O)c1ccc(NC(=O)C/C=C/c2cccnc2)cc1 [GNTbm-33, 4-((E)-4-(pyridin-3-yl)but-3-enamido)-N-(2-amino-4-(trifluoromethyl)phenyl)benzamide] | 1.75 ± 0.02 | 1.79 ± 0.03 | 1.62 ± 0.02 | 1.94 ± 0.22 | 2.01 ± 0.09 | – |
| 9.04 ± 0.6 | 1.74 ± 0.29 | 3.15 ± 0.31 | Nc1cc(F)ccc1NC(=O)c1ccc(NC(=O)CCCc2cccnc2)cc1 [GNTbm-37, 4-(4-(pyridin-3-yl)butanamido)-N-(2-amino-4-fluorophenyl)benzamide] | 10.7 ± 0.6 | 21.3 ± 1.64 | 8.07 ± 0.54 | 4.89 ± 0.34 | 8.85 ± 0.59 | – |
| 0.69 ± 0.03 | 1.2 ± 0.01 | 0.28 ± 0.01 | Nc1ccccc1NC(=O)c1ccc(NC(=O)C/C=C/c2cccnc2)cc1 [GNTbm-38, 4-((E)-4-(pyridin-3-yl)but-3-enamido)-N-(2-aminophenyl)benzamide] | 0.42 ± 0.08 | 1.64 ± 0.005 | 3.55 ± 0.45 | 1.67 ± 0.01 | 1.99 ± 0.06 | Percentages of Cell Apoptosis (SW48 cells [1]; SW48, 0.125 μM): 8.5%; Percentages of Cell Apoptosis (SW48 cells [1]; SW48, 0.5 μM): 18.3%; Percentages of Cell Apoptosis (SW48 cells [1]; SW48, 1 μM): 24.4%; Percentages of Cell Apoptosis (SW48 cells [1]; SW48, 2 μM): 37.3%; Induction of apoptosis (SW48 cells [1]): potent in inducing apoptosis in SW48 cells; Percentage of Cell Cycle Distribution G0/G1 (SW48 cells [2]; SW48, 0.125 μM): 63.3%; Percentage of Cell Cycle Distribution G2/M (SW48 cells [2]; SW48, 0.125 μM): 17.4%; Percentage of Cell Cycle Distribution S (SW48 cells [2]; SW48, 0.125 μM): 19.3%; Percentage of Cell Cycle Distribution G0/G1 (SW48 cells [2]; SW48, 0.5 μM): 61.8%; Percentage of Cell Cycle Distribution G2/M (SW48 cells [2]; SW48, 0.5 μM): 27.8%; Percentage of Cell Cycle Distribution S (SW48 cells [2]; SW48, 0.5 μM): 10.4%; Percentage of Cell Cycle Distribution G0/G1 (SW48 cells [2]; SW48, 1 μM): 57.7%; Percentage of Cell Cycle Distribution G2/M (SW48 cells [2]; SW48, 1 μM): 29.8%; Percentage of Cell Cycle Distribution S (SW48 cells [2]; SW48, 1 μM): 12.5%; Percentage of Cell Cycle Distribution G0/G1 (SW48 cells [2]; SW48, 2 μM): 53.9%; Percentage of Cell Cycle Distribution G2/M (SW48 cells [2]; SW48, 2 μM): 32.5%; Percentage of Cell Cycle Distribution S (SW48 cells [2]; SW48, 2 μM): 13.6%; Cell cycle arrest (SW48 cells [2]): significantly induced cell cycle arrest in the G2/M phase in SW48 cells; Histone 3 acetylation expression versus Chidamide [3]: more potent in inducing the histone 3 acetylation expression in SW48 cells than Chidamide |
